Source: patent US8349553B2, “Jasmonate based assays for identifying compounds that selectively inhibit mitochondrial bound hexokinases” (Ramot at Tel Aviv University Ltd., priority 2007, dated 2013)

What was measured:
Molt-4 cells = experiment: Trypan blue exclusion test, Molt-4; type: cell-based, human; conditions: 3 mM, 1 hour
Protocol: Cell death was determined by trypan blue exclusion. […] Alternatively, cytotoxicity was determined using hemacolor staining. […] In order to test the correlation between cellular ATP levels and the release of hexokinase from mitochondrial fraction different cancer cells, namely Molt-4 cells, BCL-1 leukemic cells and B16 melanoma tumors were exposed to various methyl jasmonate concentrations. […] CT26 and Molt-4 cells were then seeded in 24 well plates. CT26 cells were allowed to adhere over night. Cells were exposed to methyl jasmonate (MJ; 3 mM) for 1 hour. Trypan blue exclusion test was performed and cells were counted.

[1] = tested on: mitochondria-bound hexokinase (mitochondrial fraction of BCL-1 leukemic cells); experiment: Hexokinase detachment assay, mitochondrial fraction of BCL-1 leukemic cells; type: biochemical, murine; conditions: BCL-1 mitochondrial fraction; 30 minutes at 37° C.
Protocol: Mitochondrial fraction was prepared by mechanical lysis and differential centrifugation. All stages were performed on ice. Cells or extracted tissues were washed with PBS and disrupted by homogenization in extraction buffer (Sucrose 250 mM, HEPES-NaOH 10 mM, pH 7.2) freshly supplemented with 0.1 mM EDTA and Protease Inhibitors cocktail (Sigma). For each gram of cells or tissue, 4 volumes of extraction buffer were applied. The homogenate volume was doubled with the extraction buffer, and tissue and cell debris as well as nuclei were pelleted by centrifugation of 1,000 g for 10 minutes. The supernatant was further spun at 13,000 g for 10 minutes twice. Endoplasmic reticulum layer was removed. The pellet, designated as the mitochondrial fraction, was suspended in the appropriate buffer, depending on the assay for which the mitochondrial fraction was prepared. Mitochondrial fractions were used immediately or stored at −196° C. […] Activity of hexokinase in the supernatant (i.e., activity of the detached hexokinase) was determined spectrophotometrically at 340 nm. […] Mitochondrial fractions isolated from different cancer cells, namely Molt-4 cells, BCL-1 leukemic cells and B16 melanoma tumors were incubated for 30 minutes at 37° C., and the activity of unbound hexokinase was measured and compared to the activity of spontaneously (control) detached hexokinase. […]

CT26 cells = experiment: Cellular ATP levels (CellTiter-Glo), CT26; type: cell-based, murine; conditions: 60 minutes of exposure, indicated concentrations (FIG. 4A)
Protocol: The CellTiter-Glo™ Luminescent Cell Viability Assay (Promega, Madison, Wis., U.S.A.) was employed (Fingrut, 2005). Upon completion of a given experiment, plates were equilibrated to room temperature. CellTiter-Glo™ reagent containing luciferin and luciferase was added to each well and the plates were mixed on an orbital shaker for 2 minutes to induce cell lysis. In the presence of ATP, Mg^2+ and molecular oxygen, mono-oxidation of luciferin is catalyzed by luciferase, generating a luminescence signal. Cells were then incubated for 10 minutes at room temperature to stabilize the luminescence signal. Luminescence was recorded using Kodak digital science—Image station 440 CD. Luminescence is directly proportional to ATP concentration. ATP depletion (% of control) was calculated in the following way: {(luminescence of control cells−luminescence of drug-treated cells)/luminescence of control cells}×100. In order to test the correlation between cellular ATP levels and the release of hexokinase from mitochondrial fraction different cancer cells, namely Molt-4 cells, BCL-1 leukemic cells and B16 melanoma tumors were exposed to various methyl jasmonate concentrations. […] CT26 and Molt-4 cells were then seeded in 24 well plates. CT26 cells were allowed to adhere over night. Cells were exposed to methyl jasmonate (MJ; 3 mM) for 1 hour. Trypan blue exclusion test was performed and cells were counted.

[2] = tested on: HKI and HKII (mitochondrial fraction of B16 tumors); experiment: Western blot of supernatants with anti-HKI and anti-HKII, B16 tumor mitochondrial fraction; type: biochemical, murine; conditions: B16 tumor mitochondrial fraction supernatant
Protocol: For analysis of hexokinase levels, the experiments were performed similarly to hexokinase detachment assay described above, and unbound hexokinase in the supernatant fraction was extracted as described in Fingrut (2005). Samples were separated by sodium dodecylsulfate-polyacrylamide gel (7%) electrophoresis followed by immunoblotting. The blots were probed with specific anti-HKI or anti-HKII antibodies (1:300, Santa-Cruz Biotechnology, CA, USA). Hexokinase-antibody complexes were stained with HRP-conjugated antibody (1:10,000, Santa-Cruz Biotechnology, CA, USA). Enhanced chemiluminescence (ECL) reagent (Biological Industries, Beit Haemek, Israel) was added, and the blots were exposed to ECL film (Eastman Kodak, Rochester, N.Y., USA). Hexokinase detachment from mitochondrial fraction is not limited to CT-26 colon carcinoma. Mitochondrial fractions isolated from different cancer cells, namely Molt-4 cells, BCL-1 leukemic cells and B16 melanoma tumors were incubated for 30 minutes at 37° C., and the activity of unbound hexokinase was measured and compared to the activity of spontaneously (control) detached hexokinase. […] The supernatant of the experiments were separated on SDS-PAGE and probed with anti-HKI and anti-HKII antibodies.

[3] = tested on: mitochondrial fraction of mouse liver; experiment: Mitochondrial swelling assay, mouse liver; type: biochemical; conditions: 1 mM
Protocol: Freshly isolated mitochondrial fraction was washed with extraction buffer to remove EDTA and resuspended in swelling buffer (Mannitol 220 mM, Sucrose 70 mM, Tris, pH 7.2, 150 mM, KH2PO4, pH 7.2, 0.2 mM; 0.2 mg in 100 μL) freshly supplemented with potassium succinate, pH 7.2, 5 mM. Every component was sodium-free. Optical density was monitored at the wave length of 540 nm for 2-5 minutes before the addition of the examined reagents, e.g. methyl jasmonate, and for additional 20 minutes afterwards.
In order to examine the consistency of the relationship between the ability of methyl jasmonate to detach bound hexokinase and mitochondrial damage, methyl jasmonate was tested in mouse brain in comparison to mouse liver. The comparison was performed due to known differences of mitochondrial hexokinase content between mouse brain vs. its liver. It is well established in the art that brain mitochondrial fraction is rich in bound hexokinase, while liver mitochondrial fraction is essentially devoid of it (Wilson, 1995). […] Mitochondrial fractions were incubated for either 10, 30 or 60 minutes at 37° C. The activity of unbound hexokinase was measured and compared to the activity of spontaneously (control) detached hexokinase. Consequently, the ability of methyl jasmonate to induce swelling in mitochondrial fraction isolated from mouse brain and liver was tested.

For `CC/C=C\CC1C(=O)CCC1CC(=O)OC` (stereo not drawn) [methyl jasmonate], the “sensitivity of Molt-4 relative to CT26 cells” value (Molt-4 cells) was “showed increased sensitivity with respect to CT26 tumor cells”, the “live/dead cells by Trypan blue exclusion” value (Molt-4 cells; Molt-4) was “still alive after 60 minutes” and the “detachment of hexokinase (activity of unbound hexokinase compared to control)” value [1] was “detached hexokinase from mitochondrial fraction isolated from the three different cancer cells”. For the same compound, the “cellular ATP level” value (CT26 cells) was “depletes cellular ATP”, the “detachment of hexokinase confirmed by immunoblot (anti-HKI, anti-HKII)” value [2] was “detachment of hexokinase from mitochondrial fraction of the various cancer cells was further confirmed” and the “mitochondrial swelling (optical density at 540 nm)” value [3] was “not in liver”.
